Measurements from PMC12006171, “Marsupial cathelicidins: characterization, antimicrobial activity and evolution in this unique mammalian lineage” (Frontiers in Immunology, 2025).
Converted amounts (≈) assume the structure as drawn. Read-outs that look alike come from different tables or passages of the source. Each block holds one compound with its values, some of them ahead of it. Where a SMILES comes first, the peptide text is derived from it.

Tests used:
Experiment in all cases: microbe, parasite or virus in culture
Format in all cases: cell-based
[1] = tested on: Pseudomonas aeruginosa ATCC 27853; details: ATCC 27853; read-out: MIC P. aeruginosa ATCC
Method in brief: (§1)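 MIC read visually as the lowest peptide concentration with no growth versus negative control, after 20–24 h at 35°C. Peptides were tested in duplicate 64-0.125μg/mL (final) in MHB or cation-supplemented MH II B, some with 10% lysed horse blood; inoculum 5 x 10^5 CFU/mL.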

[2] = tested on: Escherichia coli ATCC 25922
Method in brief: as §1

[3] = tested on: Escherichia coli clinical isolate - animal
Method in brief: as §1

[4] = tested on: Staphylococcus aureus clinical isolate - animal
Method in brief: as §1

[5] = tested on: Staphylococcus aureus ATCC 29213
Method in brief: as §1

[6] = tested on: Pseudomonas aeruginosa clinical isolate - animal; details: clinical isolate - animal; read-out: MIC P. aeruginosa
Method in brief: as §1

[7] = tested on: Streptococcus agalactiae Clinical isolate - animal; details: read-out: MIC S. agalactiae
Procedure: (§2) Antimicrobial testing of 78 cathelicidin MPs was performed in two phases as outlined in Figure 1 . In phase I, 40 peptides (27 extant and 13 ancestral) were selected for testing based on rank (outlined above) and similarity to published marsupial cathelicidins with known antimicrobial activity ([33], [41]–[43]). These peptides were tested against nine bacteria (Staphylococcus aureus ATCC 29213 and clinical isolate, Escherichia coli ATCC 25922 and clinical isolate, Pseudomonas aeruginosa ATCC 27853 and clinical isolate, Streptococcus agalactiae ATCC 12386 and clinical isolate, Streptococcus pneumoniae ATCC 49619) and three fungi (Candida krusei ATCC 6258, Candida parapsilosis ATCC 22019, and Candida albicans clinical isolate). Details regarding these strains are available in Supplementary Table 4 . The antimicrobial activity of cathelicidins was determined as the minimum inhibitory concentration (MIC), which was the lowest concentration of cathelicidin that prevented visible bacterial or fungal growth, relative to the negative control. […] Minimum bactericidal concentration (MBC) and/or minimum fungicidal concentration (MFC) was conducted to determine microbicidal versus static action. Activity against S. aureus ATCC, E. coli ATCC, and Pseudomonas aeruginosa ATCC 27853 was examined in the presence of divalent cations to determine the impact of inhibitors.
(§3) Antimicrobial activity was determined using a broth microdilution susceptibility assay in 96 well polypropylene plates according to Clinical Laboratory Standards Institute guidelines M07-A and M26A as described previously ([33], [42], [43]). The bacterial and fungal isolates from humans and animals used in this study are outlined in Supplementary Table 4 . Only yeasts were included in the panel of fungi as they have been used in the susceptibility testing of eutherian ([3], [81]–[83]) and other marsupial cathelicidins previously ([33], [42], [43]). Cathelicidin mature peptides were solubilized in DMSO and serially diluted in duplicate from 128-0.25μg/mL in a final volume of 100µL. For bacteria, cathelicidins were diluted in Mueller Hinton Broth (MHB) with or without 10% lysed horse blood, and with (MH II B) or without (MHB) calcium and magnesium cations. For fungi, cathelicidins were diluted in Roswell Park Memorial Institute medium (RPMI)-1640 MOPS. Ampicillin or tetracycline were included as a positive control for Gram-positive and -negative bacteria respectively, while amphotericin B was used for fungi. A media-only negative control and growth control (no cathelicidin) were also included on each plate. Bacteria were sub-cultured on Muller Hinton agar (MHA) or sheep blood agar (BA), and fungi on Sabouraud dextrose agar (SAB), 20–24 hours prior to the test. Colonies were suspended in saline, the concentration adjusted to a 0.5 McFarland standard, and then diluted in media to a concentration of 1.0 x 10^6 cells/mL. Then, 100μL was added to each well of the cathelicidin dilution plate, giving a final inoculum density of 5 x 10^5 CFU/mL and cathelicidin concentration of 64-0.125μg/mL. Colony counts were performed on MHA/BA/SAB to confirm inoculum density. All plates were incubated at 35°C for 20–24 hours, depending on the strain.
(§4) Colonies were counted and compared to the colony count of the starting inoculum.

[8] = tested on: Streptococcus pneumoniae ATCC 49619; details: read-out: MIC S. pneumoniae ATCC
Procedure: as §2, §3, §4

[9] = tested on: Streptococcus agalactiae ATCC 12386; details: read-out: MIC S. agalactiae ATCC
Procedure: as §2, §3, §4

[10] = ATCC 25922, read-out: MIC E. coli ATCC
[11] = clinical isolate - animal, read-out: MIC S. aureus
[12] = ATCC 29213, read-out: MIC S. aureus ATCC

MIC [1]: >13.6 µM | MIC [2, 10]: >13.6 µM | MIC E. coli ([3]; clinical isolate - animal): 13.6 (>13.6)^13.6 µM | MIC in the presence of cations E. coli ([3]; clinical isolate - animal): 13.6 (>13.6)^13.6 µM | MIC [4, 11]: >13.6 µM | MIC [5, 12]: >13.6 µM | MIC [6]: >13.6 µM | MIC ([7]; clinical isolate - animal): >13.6 µM | MIC ([8]; ATCC 49619): >13.6 µM | MIC ([9]; ATCC 12386): >13.6 µM
SMILES: CC[C@H](C)[C@H](NC(=O)[C@H](CC(C)C)NC(=O)[C@H](CCCCN)NC(=O)[C@H](C)NC(=O)[C@H](CC(C)C)NC(=O)[C@H](CO)NC(=O)[C@H](CCCNC(=N)N)NC(=O)[C@@H](N)C(C)C)C(=O)N[C@@H](Cc1ccc(O)cc1)C(=O)N[C@@H](CCC(N)=O)C(=O)N[C@@H](CCCCN)C(=O)N[C@@H](Cc1ccc(O)cc1)C(=O)N[C@@H](CCCNC(=N)N)C(=O)N[C@@H](CCC(N)=O)C(=O)N[C@@H](CC(C)C)C(=O)N[C@@H](CC(C)C)C(=O)N[C@@H](CC(=O)O)C(=O)N[C@@H](CCCCN)C(=O)N[C@@H](Cc1ccc(O)cc1)C(=O)N[C@H](C(=O)N[C@H](C(=O)N[C@@H](CC(C)C)C(=O)N[C@@H](CCCNC(=N)N)C(=O)N[C@@H](CC(N)=O)C(=O)NCC(=O)N[C@@H](Cc1ccc(O)cc1)C(=O)N[C@@H](CCCCN)C(=O)N[C@@H](CCCCN)C(=O)N[C@@H](CC(C)C)C(=O)N[C@@H](CCC(N)=O)C(=O)N[C@@H](CC(=O)O)C(=O)N[C@H](C(=O)N[C@@H](Cc1ccccc1)C(=O)N[C@@H](CO)C(=O)N[C@@H](CCCCN)C(=O)N[C@@H](CCC(N)=O)C(=O)N[C@H](C(=O)NCC(=O)N[C@@H](CO)C(=O)O)C(C)C)[C@@H](C)CC)[C@@H](C)CC)[C@@H](C)O [MacroCath8] (H-VRSLAKLIYQKYRQLLDKYTILRNGYKKLQDIFSKQVGS-OH)

MIC [1]: >22.6 µM | MIC [2, 10]: 11.3 µM | MIC ([2]; ATCC 25922, read-out: MIC in the presence of cations E. coli ATCC): 22.6 µM | MIC ([3]; clinical isolate - animal): >22.6 µM | MIC [4, 11]: >22.6 µM | MIC [5, 12]: >22.6 µM | MIC [6]: >22.6 µM | MIC ([7]; clinical isolate - animal): >22.6 µM | MIC ([8]; ATCC 49619): >22.6 µM | MIC ([9]; ATCC 12386): >22.6 µM
SMILES: CC[C@H](C)[C@H](NC(=O)CNC(=O)[C@H](CCC(=O)O)NC(=O)[C@H](CCC(N)=O)NC(=O)[C@@H](NC(=O)[C@H](CCCCN)NC(=O)[C@H](CC(N)=O)NC(=O)[C@H](CCCCN)NC(=O)[C@@H](NC(=O)[C@H](CC(C)C)NC(=O)[C@H](CC(N)=O)NC(=O)CNC(=O)[C@H](CC(C)C)NC(=O)[C@H](CCCCN)NC(=O)[C@H](CCCNC(=N)N)NC(=O)[C@H](CC(C)C)NC(=O)CN)[C@@H](C)CC)[C@@H](C)CC)C(=O)N[C@@H](CCC(=O)O)C(=O)N[C@@H](Cc1c[nH]cn1)C(=O)N[C@@H](Cc1ccccc1)C(=O)N[C@@H](Cc1ccccc1)C(=O)NCC(=O)N[C@@H](CCCNC(=N)N)C(=O)N[C@@H](CCCNC(=N)N)C(=O)O [SmcrCath6] (H-GLRKLGNLIKNKIQEGIEHFFGRR-OH)
MBC E. coli ATCC ([2]; ATCC 25922): 22.6 µM (≈ 63.8 µg/mL)

MIC ([2]; Escherichia coli, ATCC25922, MHB without cations, 5 x 10^5 CFU/mL, 35°C 20–24 hours, duplicate, read-out: MIC E. coli ATCC): 4 µg/mL | MIC ([2]; Escherichia coli, ATCC25922, superscript value, cation-adjusted Mueller Hinton broth, read-out: MIC in the presence of cations E. coli ATCC): 8 µg/mL | MIC ([2]; Escherichia coli, ATCC25922, superscript value, cation-adjusted Mueller Hinton broth, µM equivalent, read-out: MIC in the presence of cations E. coli ATCC): 22.8 µM | MIC ([2]; Escherichia coli, ATCC25922, µM equivalent of Table 3, read-out: MIC E. coli ATCC): 11.4 µM | MIC ([3]; Escherichia coli, clinical isolate, MHB without cations, 5 x 10^5 CFU/mL, 35°C 20–24 hours, duplicate): > 64 µg/mL | MIC ([3]; Escherichia coli, clinical isolate, µM equivalent of Table 3): > 183 µM | MIC ([4]; Staphylococcus aureus, clinical isolate, MHB without cations, 5 x 10^5 CFU/mL, 35°C 20–24 hours, duplicate, read-out: MIC S. aureus): 0.25 µg/mL | MIC ([4]; Staphylococcus aureus, clinical isolate, superscript value, cation-adjusted Mueller Hinton broth, read-out: MIC in the presence of cations S. aureus): 0.25 µg/mL | MIC ([4]; Staphylococcus aureus, clinical isolate, superscript value, cation-adjusted Mueller Hinton broth, µM equivalent, read-out: MIC in the presence of cations S. aureus): 0.7 µM | MIC ([4]; Staphylococcus aureus, clinical isolate, µM equivalent of Table 3, read-out: MIC S. aureus): 0.7 µM | MIC ([5]; Staphylococcus aureus, ATCC29213, MHB without cations, 5 x 10^5 CFU/mL, 35°C 20–24 hours, duplicate, 64-0.125μg/mL, read-out: MIC S. aureus ATCC): 1 µg/mL | MIC ([5]; Staphylococcus aureus, ATCC29213, superscript value, cation-adjusted Mueller Hinton broth (calcium and magnesium), read-out: MIC in the presence of cations S. aureus ATCC): 2 µg/mL | MIC ([5]; Staphylococcus aureus, ATCC29213, superscript value, cation-adjusted Mueller Hinton broth, µM equivalent of Table 3, read-out: MIC in the presence of cations S. aureus ATCC): 5.7 µM | MIC ([5]; Staphylococcus aureus, ATCC29213, µM equivalent of Table 3, read-out: MIC S. aureus ATCC): 2.8 µM | MIC ([7]; Streptococcus agalactiae, clinical isolate, phase I peptides only, 5 x 10^5 CFU/mL, 35°C 20–24 hours, duplicate): 0.25 µg/mL | MIC ([7]; Streptococcus agalactiae, clinical isolate, µM equivalent of Table 3): 0.7 µM | MIC ([8]; Streptococcus pneumoniae, ATCC49619, phase I peptides only, 5 x 10^5 CFU/mL, 35°C 20–24 hours, duplicate): > 64 µg/mL | MIC ([8]; Streptococcus pneumoniae, ATCC49619, µM equivalent of Table 3): > 183 µM | MIC ([9]; Streptococcus agalactiae, ATCC12386, phase I peptides only, 5 x 10^5 CFU/mL, 35°C 20–24 hours, duplicate): 0.25 µg/mL | MIC ([9]; Streptococcus agalactiae, ATCC12386, µM equivalent of Table 3): 0.7 µM
SMILES: CC1(C)S[C@@H]2[C@H](NC(=O)[C@H](N)c3ccccc3)C(=O)N2[C@H]1C(=O)O [Ampicillin, reference compound]
